Laboratory results: patent US10851116B2, “Bicyclic amines as novel JAK kinase inhibitors” (LEO Pharma A/S, priority 2017, dated 2020)

Columns and labels:
Assay type in all cases: biochemical
[1] = target: JAK3 (Homo sapiens (Human), UniProt P52333); experiment: JAK kinase assay (HTRF), JAK3; conditions: catalytic domain, His-tag, ATP at Km (2 μM)
Method: (§1) Human baculovirus-expressed JAK1, 2, 3 and TYK2 were purchased from Carna Biosciences, Inc. All four purified enzymes contain only the catalytic domain. JAK1 (aa 850-1154) and TYK2 (aa 871-1187) are expressed with an N-terminally fused GST-tag, and JAK2 and JAK3 with an N-terminally fused His-tag.
(§2) Inhibition of phosphorylation of a synthetic peptide was measured in an HTRF-based assay using the TK substrate-Biotin from the Cisbio HTRFKinEASE TK kit. First, 2 μl of TK solution (TK substrate-biotin in kinase buffer [1× enzymatic buffer from HTRFKinEASE TK kit, 1 mM DTT]) is added to a plate containing 1 μl prediluted compound (final assay concentration DMSO: 0.75%). Then, 5 μl kinase-ATP mix (prepared in kinase buffer) is added to the wells and the plates are incubated at RT for 20-30 min. For all four kinases a concentration of ATP that corresponded to the Km for ATP was used. The final concentrations of buffers, substrate, kinase and ATP were: JAK1: 50 mM Hepes buffer pH 7.0, 0.01% BSA, 10 mM MgCl2, 1 mM DTT, 7 μM ATP, 50 nM SEB, 1 μM TK Substrate-Biotin and 5 ng JAK1; JAK2: 50 mM Hepes buffer pH 7.0, 0.01% BSA, 5 mM MgCl2, 1 mM DTT, 4 μM ATP, 1 μM TK Substrate-Biotin and 0.1 ng JAK2; JAK3: 50 mM Hepes buffer pH 7.0, 0.01% BSA, 5 mM MgCl2, 1 mM DTT, 2 μM ATP, 1 μM TK Substrate-Biotin and 0.3 ng JAK3; TYK2: 50 mM Hepes buffer pH 7.0, 0.01% BSA, 5 mM MgCl2, 1 mM DTT, 13 μM ATP, 50 nM SEB, 1 μM TK Substrate-Biotin and 0.8 ng TYK2. Thereafter, the kinase reaction is stopped by adding 4 μl detection mix (final concentrations: 50 mM Hepes buffer pH 7.0, 0.01% BSA, 0.8 M KF, 20 mM EDTA, 42 nM Streptavidin-XL665 and 1:400 STK Ab Cryptate) and the plates are incubated overnight in the dark. The HTRF signal is read using an Envision plate reader.

[2] = target: JAK2 (Homo sapiens (Human), UniProt O60674); experiment: JAK kinase assay (HTRF), JAK2; conditions: catalytic domain, His-tag, ATP at Km (4 μM)
Method: as §1, §2

[3] = target: TYK2 (Homo sapiens (Human), UniProt P29597); experiment: JAK kinase assay (HTRF), TYK2; conditions: catalytic domain (aa 871-1187), GST-tag, ATP at Km (13 μM)
Method: as §1, §2

[4] = target: JAK1 (Homo sapiens (Human), UniProt P23458); experiment: JAK kinase assay (HTRF), JAK1; conditions: catalytic domain (aa 850-1154), GST-tag, ATP at Km (7 μM)
Method: as §1, §2

JAK2, sequence (O60674 849-1124): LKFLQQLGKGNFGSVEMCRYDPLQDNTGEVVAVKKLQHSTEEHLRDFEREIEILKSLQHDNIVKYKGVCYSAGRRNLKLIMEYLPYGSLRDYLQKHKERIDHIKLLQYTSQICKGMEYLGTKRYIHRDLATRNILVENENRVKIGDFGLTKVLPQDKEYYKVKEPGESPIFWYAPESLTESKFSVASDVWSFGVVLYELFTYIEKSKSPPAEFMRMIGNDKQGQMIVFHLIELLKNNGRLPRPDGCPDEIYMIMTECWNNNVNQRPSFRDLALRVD
JAK1, sequence (P23458 850-1154): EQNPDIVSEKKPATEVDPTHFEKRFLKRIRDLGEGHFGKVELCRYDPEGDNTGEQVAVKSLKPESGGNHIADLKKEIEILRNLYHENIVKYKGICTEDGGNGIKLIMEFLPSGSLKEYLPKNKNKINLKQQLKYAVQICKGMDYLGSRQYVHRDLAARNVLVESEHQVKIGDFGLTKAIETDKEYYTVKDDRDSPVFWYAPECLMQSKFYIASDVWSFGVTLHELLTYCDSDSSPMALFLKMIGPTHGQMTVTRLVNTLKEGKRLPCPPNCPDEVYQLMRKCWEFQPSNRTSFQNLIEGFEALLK
JAK3, sequence (P52333 822-1111): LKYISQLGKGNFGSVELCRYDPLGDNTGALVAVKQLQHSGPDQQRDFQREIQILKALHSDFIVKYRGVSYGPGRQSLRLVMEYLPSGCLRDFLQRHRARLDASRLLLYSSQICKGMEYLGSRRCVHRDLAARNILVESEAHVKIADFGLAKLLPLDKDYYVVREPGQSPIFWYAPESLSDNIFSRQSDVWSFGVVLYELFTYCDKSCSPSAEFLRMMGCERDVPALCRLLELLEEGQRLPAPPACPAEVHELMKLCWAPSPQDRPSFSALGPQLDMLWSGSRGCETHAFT
TYK2, sequence (P29597 871-1187): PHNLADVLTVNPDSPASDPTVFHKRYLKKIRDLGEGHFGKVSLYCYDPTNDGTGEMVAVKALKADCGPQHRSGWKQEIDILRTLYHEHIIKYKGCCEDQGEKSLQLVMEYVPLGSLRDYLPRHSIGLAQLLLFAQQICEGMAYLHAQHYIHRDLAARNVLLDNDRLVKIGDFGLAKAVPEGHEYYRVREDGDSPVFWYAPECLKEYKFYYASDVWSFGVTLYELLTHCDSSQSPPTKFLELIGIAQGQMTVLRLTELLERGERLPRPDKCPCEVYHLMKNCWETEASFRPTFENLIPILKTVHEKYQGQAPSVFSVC

SMILES | EC50 [1] [µM] | EC50 [2] [µM] | EC50 [3] [µM] | EC50 [4] [µM]
C[C@]12CN(c3cnc(C#N)cn3)CC[C@H]1CCN(c1ncnc3[nH]ccc13)C2 (racemic) [Example 4, 5-[(4aR*,8aS*)-8a-methyl-7-(7H-pyrrolo[2,3-d]pyrimidin-4-yl)-3,4,4a,5,6,8-hexahydro-1H-2,7-naphthyridin-2-yl]pyrazine-2-carbonitrile] | 0.004 | 0.025 | 0.148 | 0.004
C[C@]12CN(c3ccc(C#N)cn3)CC[C@H]1CCN(c1ncnc3[nH]ccc13)C2 (racemic) [Example 5, 6-[(4aR*,8aS*)-8a-methyl-7-(7H-pyrrolo[2,3-d]pyrimidin-4-yl)-3,4,4a,5,6,8-hexahydro-1H-2,7-naphthyridin-2-yl]pyridine-3-carbonitrile] | 0.007 | 0.08 | 0.453 | 0.01
C[C@]12CN(c3ccc(C#N)nn3)CC[C@H]1CCN(c1ncnc3[nH]ccc13)C2 (racemic) [Example 6, 6-[(4aR*,8aS*)-8a-methyl-7-(7H-pyrrolo[2,3-d]pyrimidin-4-yl)-3,4,4a,5,6,8-hexahydro-1H-2,7-naphthyridin-2-yl]pyridazine-3-carbonitrile] | 0.009 | 0.064 | 0.634 | 0.017
C[C@]12CN(c3ncc(C#N)cn3)CC[C@H]1CCN(c1ncnc3[nH]ccc13)C2 (racemic) [Example 7, 2-[(4aR*,8aS*)-8a-methyl-7-(7H-pyrrolo[2,3-d]pyrimidin-4-yl)-3,4,4a,5,6,8-hexahydro-1H-2,7-naphthyridin-2-yl]pyrimidine-5-carbonitrile] | 0.005 | 0.14 | 0.74 | 0.046
C[C@@]12CN(c3ncnc4[nH]ccc34)CC[C@@H]1CCN(S(N)(=O)=O)C2 (racemic) [Example 9, (4aR*,8aS*)-8a-methyl-7-(7H-pyrrolo[2,3-d]pyrimidin-4-yl)-3,4,4a,5,6,8-hexahydro-1H-2,7-naphthyridine-2-sulfonamide] | 0.008 | 0.058 | 0.241 | 0.039
Cc1nc(N2CC[C@H]3CCN(c4ncnc5[nH]ccc45)C[C@@]3(C)C2)ccc1C#N (racemic) [Example 10, 6-[(4aS*,8aR*)-8a-methyl-7-(7H-pyrrolo[2,3-d]pyrimidin-4-yl)-3,4,4a,5,6,8-hexahydro-1H-2,7-naphthyridin-2-yl]-2-methyl-pyridine-3-carbonitrile] | 0.204 | 0.469 | 3.88 | 0.112
Cc1cc(C#N)cnc1N1CC[C@H]2CCN(c3ncnc4[nH]ccc34)C[C@@]2(C)C1 (racemic) [Example 11, 6-[(4aS*,8aR*)-8a-methyl-7-(7H-pyrrolo[2,3-d]pyrimidin-4-yl)-3,4,4a,5,6,8-hexahydro-1H-2,7-naphthyridin-2-yl]-5-methyl-pyridine-3-carbonitrile] | 0.085 | 0.38 | 0.976 | 0.086
C[C@@]12CN(c3ncnc4[nH]ccc34)CC[C@@H]1CCN(S(C)(=O)=O)C2 (racemic) [Example 13, (4aR*,8aS*)-8a-methyl-2-methylsulfonyl-7-(7H-pyrrolo[2,3-d]pyrimidin-4-yl)-3,4,4a,5,6,8-hexahydro-1H-2,7-naphthyridine] | 0.075 | 0.09 | 0.326 | 0.072
C[C@@]12CN(c3ncnc4[nH]ccc34)CC[C@@H]1CN(S(C)(=O)=O)C2 (racemic) [Example 26, 4-[(3aS*,7aS*)-3a-methyl-2-methylsulfonyl-1,3,4,6,7,7a-hexahydropyrrolo[3,4-c]pyridin-5-yl]-7H-pyrrolo[2,3-d]pyrimidine] | 0.243 | 0.154 | 0.898 | 0.093
C[C@@]12CN(c3ncnc4[nH]ccc34)CC[C@@H]1CN(S(N)(=O)=O)C2 (racemic) [Example 27, (3aS*,7aS*)-3a-methyl-5-(7H-pyrrolo[2,3-d]pyrimidin-4-yl)-1,3,4,6,7,7a-hexahydropyrrolo[3,4-c]pyridine-2-sulfonamide] | 0.054 | 0.08 | 0.473 | 0.04
C[C@@]12CN(c3ncnc4[nH]ccc34)CC[C@@H]1CN(S(=O)(=O)NCC#N)C2 (racemic) [Example 30, (3aS*,7aS*)—N-(cyanomethyl)-3a-methyl-5-(7H-pyrrolo[2,3-d]pyrimidin-4-yl)-1,3,4,6,7,7a-hexahydropyrrolo[3,4-c]pyridine-2-sulfonamide] | 0.091 | 0.056 | 0.364 | 0.029
C[C@@]12CN(c3ncnc4[nH]ccc34)CC[C@@H]1CN(S(=O)(=O)CC(F)(F)F)C2 (racemic) [Example 31, 4-[(3aS*,7aS*)-3a-methyl-2-(2,2,2-trifluoroethylsulfonyl)-1,3,4,6,7,7a-hexahydropyrrolo[3,4-c]pyridin-5-yl]-7H-pyrrolo[2,3-d]pyrimidine] | 0.274 | 0.455 | 3.18 | 0.133
C[C@]12CN(C(=O)CC#N)C[C@H]1CCN(c1ncnc3[nH]ccc13)C2 (racemic) [Example 32, 3-[(3aS*,7aS*)-3a-methyl-5-(7H-pyrrolo[2,3-d]pyrimidin-4-yl)-1,3,4,6,7,7a-hexahydropyrrolo[3,4-c]pyridin-2-yl]-3-oxo-propanenitrile] | 0.162 | 0.067 | 0.307 | 0.016
C[C@]12CN(c3ccc(S(C)(=O)=O)cn3)C[C@H]1CCN(c1ncnc3[nH]ccc13)C2 (racemic) [Example 35] | 0.095 | 0.131 | 2.44 | 0.013
C[C@]12CN(c3ncccc3CO)C[C@H]1CCN(c1ncnc3[nH]ccc13)C2 (racemic) [Example 36, [2-[(3aS*,7aS*)-3a-methyl-5-(7H-pyrrolo[2,3-d]pyrimidin-4-yl)-1,3,4,6,7,7a-hexahydropyrrolo[3,4-c]pyridin-2-yl]-3-pyridyl]methanol] | 0.235 | 0.12 | 1.11 | 0.069
C[C@]12CN(c3ncc(Br)cc3CO)C[C@H]1CCN(c1ncnc3[nH]ccc13)C2 (racemic) [Example 37, [2-[(3aS*,7aS*)-3a-methyl-5-(7H-pyrrolo[2,3-d]pyrimidin-4-yl)-1,3,4,6,7,7a-hexahydropyrrolo[3,4-c]pyridin-2-yl]-5-bromo-3-pyridyl]methanol] | 0.038 | 0.048 | 0.611 | 0.012
C[C@]12CN(c3ccc(S(C)(=O)=O)cc3)C[C@H]1CCN(c1ncnc3[nH]ccc13)C2 (racemic) [Example 38, 4-[(3aR*,7aS*)-3a-methyl-2-(4-methylsulfonylphenyl)-1,3,4,6,7,7a-hexahydropyrrolo[3,4-c]pyridin-5-yl]-7H-pyrrolo[2,3-d]pyrimidine] | 0.071 | 0.032 | 0.335 | 0.007
C[C@]12CN(c3ccncn3)C[C@H]1CCN(c1ncnc3[nH]ccc13)C2 (racemic) [Example 39, 4-[(3aR*,7aS*)-3a-methyl-2-pyrimidin-4-yl-1,3,4,6,7,7a-hexahydropyrrolo[3,4-c]pyridin-5-yl]-7H-pyrrolo[2,3-d]pyrimidine] | 0.199 | 0.072 | 0.775 | 0.018
C[C@]12CN(c3ncc(C#N)cn3)C[C@H]1CCN(c1ncnc3[nH]ccc13)C2 (racemic) [Example 41, 2-[(3aS*,7aS*)-3a-methyl-5-(7H-pyrrolo[2,3-d]pyrimidin-4-yl)-1,3,4,6,7,7a-hexahydropyrrolo[3,4-c]pyridin-2-yl]pyrimidine-5-carbonitrile] | 0.07 | 0.216 | 2.04 | 0.049
Cc1cc(C#N)cnc1N1C[C@H]2CCN(c3ncnc4[nH]ccc34)C[C@@]2(C)C1 (racemic) [Example 44] | 0.099 | 0.179 | 2.02 | 0.065
